Where a name gives a salt, the structure may show the parent alone.

As usually defined, the IC50 is the midpoint of a concentration-inhibition curve. A higher IC50 goes with weaker potency.

In one experiment the target is V1 Receptor (Rattus norvegicus, UniProt P30560). Description: V1 Receptor Binding Assay ([3H]-Arg-vasopressin, rat liver plasma membrane). As to conditions: 37° C., 10 minutes, pH 8.0.
Another experiment addresses T1, V2 Receptor (Rattus norvegicus, UniProt Q00788).
T1 construct: rat kidney plasma membrane preparations; from tissue; host or cells: rat kidney plasma membranes
Description: V2 Receptor Binding Assay ([3H]-Arg-vasopressin, rat kidney plasma membrane). Particulars: 4° C., pH 8.0.

V1 Receptor, sequence (P30560 whole entry): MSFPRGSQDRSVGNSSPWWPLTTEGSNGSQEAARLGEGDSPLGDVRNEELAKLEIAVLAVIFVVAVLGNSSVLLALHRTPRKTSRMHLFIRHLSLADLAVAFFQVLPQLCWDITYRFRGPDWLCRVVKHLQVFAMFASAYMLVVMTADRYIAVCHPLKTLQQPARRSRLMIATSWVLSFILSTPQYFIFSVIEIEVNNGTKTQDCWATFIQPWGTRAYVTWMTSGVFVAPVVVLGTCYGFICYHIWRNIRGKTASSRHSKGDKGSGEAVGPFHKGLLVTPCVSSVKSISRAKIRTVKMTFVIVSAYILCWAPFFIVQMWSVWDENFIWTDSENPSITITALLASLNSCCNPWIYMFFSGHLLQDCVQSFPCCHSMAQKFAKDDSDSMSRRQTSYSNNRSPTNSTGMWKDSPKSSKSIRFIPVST
T1 sequence (Q00788 whole entry): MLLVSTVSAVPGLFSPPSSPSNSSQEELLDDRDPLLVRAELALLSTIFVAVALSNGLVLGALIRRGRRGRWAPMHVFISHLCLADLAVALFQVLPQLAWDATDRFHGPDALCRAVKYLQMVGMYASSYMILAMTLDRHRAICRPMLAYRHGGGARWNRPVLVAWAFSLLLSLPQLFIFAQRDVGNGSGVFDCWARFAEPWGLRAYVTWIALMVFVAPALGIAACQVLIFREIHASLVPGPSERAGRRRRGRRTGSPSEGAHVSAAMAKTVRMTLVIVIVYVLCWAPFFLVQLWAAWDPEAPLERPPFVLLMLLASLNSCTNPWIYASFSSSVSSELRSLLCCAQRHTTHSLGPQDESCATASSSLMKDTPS
Description for V1 Receptor: After incubation, the mixture is filtered three times using the glass filter (GF/F) so as to separate the membrane preparation combining with vasopressin and then washed with the buffer (5 ml). This glass filter is taken out and mixed with liquid scintillation cocktail. The amount of [^3 H]-vasopressin combining with the membrane is measured by liquid scintillation counter and the rate of the inhibitory effect of the test compound is estimated according to the following equation.
(§1) C1 : The amount of [^3 H]-vasopressin combining with the membrane in the presence of the test compound of a known amount.
(§2) C0 : The amount of [^3 H]-vasopressin combining with the membrane in the absence of the test compound.
B1 : The amount of [^3 H]-vasopressin combining with the membrane in the presence of the excess amount of vasopressin (10^-6 M).
(§3) The results are expressed as IC50 value, which is the concentration of the test compound required to achieve the inhibitory effect in the rate of 50%.
Description for V2 Receptor: Chem., 253, 3211 (1978)], the plasma membrane (100000 dpm, 4×10^-10M) of [^3 H]-Arg-vasopressin and a test compound (0.6 mg, 10^-10 -10^-5 M) are incubated at 4° C. for 3 hours in 100 mM Tris-HCl buffer pH: 8.0 (250 μl ) containing 5 mM MgCl2, 1 mM EDTA and 0.1 % BSA. After incubation, the mixture is filtered using the glass filter (GF/F) so as to separate the membrane preparation combining with vasopressin and then washed twice with the buffer (5 ml). This glass filter is taken out and mixed with liquid scintillation cocktail. The amount of [^3 H]-vasopressin combining with the membrane is measured by liquid scintillation counter and the rate of the inhibitory effect of the test compound is estimated according to the following equation. [formula]
as §1, §2
B1 : The amount of [3H-vasopressin combining with the membrane in the presence of the excess amount of vasopressin (10^-6 M).
as §3

`Cc1ccccc1C(=O)Nc1ccc(C(=O)N2CCCC(=CCCN(C)C)c3cc(F)ccc32)c(Cl)c1` [Test Compound 33, 5-(3-Dimethylaminopropylidene)-7-fluoro-1-[2-chloro-4-(2-methylbenzoylamino)benzoyl]-2,3,4,5-tetrahydro-1H-benzazepine hydrochloride]: the IC50 at V1 Receptor came to 84 nM; on V2 Receptor, 2 nM.
With `COc1cc(NC(=O)c2ccccc2C)ccc1C(=O)N1CCCC(OCCN2CCCC2)c2cc(Cl)ccc21` (stereo not drawn) [Test Compound 34, 5-[2-(1-Pyrrolidinyl)ethoxy]-7-chloro-1-[2-methoxy-4-(2-methylbenzoylamino)benzoyl]-2,3,4,5-tetrahydro-1H-benzazepine hydrochloride], the figures for the IC50 on V1 Receptor and on V2 Receptor were 9 nM and 6 nM, respectively.
Turning to `COc1cc(NC(=O)c2ccccc2C)ccc1C(=O)N1CCCC(OCCCOS(=O)(=O)c2ccc(C)cc2)c2cc(Cl)ccc21` (stereo not drawn) [Test Compound 37, 5-[3-(p-Toluenesulfonyloxy)propoxy]-7-chloro-1-[2-methoxy-4-(2-methylbenzoylamino)benzoyl]-2,3,4,5-tetrahydro-1H-benzazepine], the IC50 worked out at 210 nM at V1 Receptor and 5.4 nM at V2 Receptor.
On the same counts, the results for `Cc1ccccc1C(=O)Nc1ccc(C(=O)N2CCCC(C#N)c3cc(Cl)ccc32)cc1Cl` (stereo not drawn) [Test Compound 38, 5-Cyano-7-chloro-1-[3-chloro-4-(2-methylbenzoylamino)benzoyl]-2,3,4,5-tetrahydro-1H-benzazepine] are 160 nM and 150 nM.
`COc1cc(C(=O)N2CCCC(CC#N)c3cc(Cl)ccc32)ccc1NC(=O)c1ccccc1C` (stereo not drawn) [Test Compound 39, 5-Cyanomethyl-7-chloro-1-[3-methoxy-4-(2-methylbenzoylamino)benzoyl]-2,3,4,5-tetrahydro-1H-benzazepine]: the concentration for half-maximal inhibition (IC50) was found to be 44 nM on V1 Receptor and 14 nM on V2 Receptor.
On the same counts, the results for `COc1cc(NC(=O)c2ccccc2C)ccc1C(=O)N1CCCC(OCCN2CCN(C(C)=O)CC2)c2cc(Cl)ccc21` (stereo not drawn) [Test Compound 40, 5-[2-(4-Acetyl-1-piperazinyl)ethoxy]-7-chloro-1-[2-methoxy-4-(2-methylbenzoylamino)benzoyl]-2,3,4,5-tetrahydro-1H-benzazepine hydrochloride] are 73 nM and 7 nM.
For the compound `CNC(=O)CC1CCCN(C(=O)c2ccc(NC(=O)c3ccccc3C)cc2OC)c2ccc(F)cc21` (stereo not drawn) [Test Compound 42, 5-Methylaminocarbonylmethyl-7-fluoro-1-[2-methoxy-4-(2-methylbenzoylamino)benzoyl]-2,3,4,5-tetrahydro-1H-benzazepine], the IC50 on V1 Receptor amounted to 160 nM; at V2 Receptor it was 6 nM.
Take `COc1cc(NC(=O)c2ccccc2C)ccc1C(=O)N1CCCC(OCCN2CCNCC2)c2cc(Cl)ccc21` (stereo not drawn) [Test Compound 43, 5-[2-(1-Piperazinyl)ethoxy]-7-chloro-1-[2-methoxy-4-(2-methylbenzoylamino)benzoyl]-2,3,4,5-tetrahydro-1H-benzazepine dihydrochloride]: the concentration for half-maximal inhibition (IC50) came out at 70 nM at V1 Receptor and 6 nM at V2 Receptor.
The matching figures for `COc1cc(NC(=O)c2ccccc2Cl)ccc1C(=O)N1CCCC(CC(=O)N2CCN(C)CC2)c2cc(Cl)ccc21` (stereo not drawn) [Test Compound 44, 5-[(4-Methyl-1-piperazinyl)carbonylmethyl]-7-chloro-1-[2-methoxy-4-(2-chlorobenzoylamino)benzoyl]-2,3,4,5-tetrahydro-1H-benzazepine hydrochloride]: 24 nM and 6 nM.
On to `COc1cc(NC(=O)c2ccccc2Cl)ccc1C(=O)N1CCCC(CC(=O)N2CCC(N(C)C)CC2)c2cc(Cl)ccc21` (stereo not drawn) [Test Compound 45, 5-[(4-Dimethylamino-1-piperidinyl)carbonylmethyl]-7-chloro-1-[2-methoxy-4-(2-chlorobenzoylamino)benzoyl]-2,3,4,5-tetrahydro-1H-benzazepine hydrochloride], for which the IC50 at V1 Receptor worked out at 8 nM; at V2 Receptor, 4 nM.
Regarding `COc1cc(NC(=O)c2ccccc2C)ccc1C(=O)N1CCCC(CN2CCN(C)CC2)c2cc(F)ccc21` (stereo not drawn) [Test Compound 46, 5-[(4-Methyl-I-piperazinyl)methyl]-7-fluoro-1-[2-methoxy-4-(2-methylbenzoylamino)benzoyl]-2,3,4,5-tetrahydro-1H-benzazepine], the figures for the concentration for half-maximal inhibition (IC50) at V1 Receptor and at V2 Receptor were 89 nM and 9 nM, respectively.
The matching figures for `COc1cc(NC(=O)c2ccccc2C)ccc1C(=O)N1CCCC(OCCN2CCN(C)CC2)c2cc(F)ccc21` (stereo not drawn) [Test Compound 47, 5-[2-(4-Methyl-1-piperazinyl)ethoxy]-7-fluoro-1-[2-methoxy-4-(2-methylbenzoylamino)benzoyl]-2,3,4,5-tetrahydro-1H-benzazepine]: 330 nM and 8 nM.
On to `COc1cc(NC(=O)c2ccccc2Cl)ccc1C(=O)N1CCCC(CC(=O)NC2CCN(Cc3ccccc3)CC2)c2cc(Cl)ccc21` (stereo not drawn) [Test Compound 48, 5-[(1-Benzyl-4-piperidinyl)aminocarbonylmethyl]-7-chloro-1-[2-methoxy-4-(2-chlorobenzoylamino)benzoyl]-2,3,4,5-tetrahydro-1H-benzazepine hydrochloride], for which the IC50 at V1 Receptor came out at 37 nM; on V2 Receptor, 12 nM.
Consider `Cc1ccccc1C(=O)Nc1ccc(C(=O)N2CCCC(CC(=O)N3CCCC3)c3cc(F)ccc32)cc1` (stereo not drawn) [Test Compound 50, 5-[(1-Pyrrolidinyl)carbonylmethyl]-7-fluoro-1-[4-(2-methylbenzoylamino)benzoyl]-2,3,4,5-tetrahydro-1H-benzazepine], for which the values for the IC50 at V1 Receptor and on V2 Receptor were 110 nM and 15 nM, respectively.
With `COc1cc(NC(=O)c2ccccc2Br)ccc1C(=O)N1CCCC(CC(=O)N(C)C)c2cc(F)ccc21` (stereo not drawn) [Test Compound 51, 5-Dimethylaminocarbonylmethyl-7-fluoro-1-[2-methoxy-4-(2-bromobenzoylamino)benzoyl]-2,3,4,5-tetrahydro-1H-benzazepine], the IC50 at V1 Receptor is 18 nM; at V2 Receptor it was 3 nM.
On to `COc1cc(NC(=O)c2ccccc2C)ccc1C(=O)N1CCCC(CC(=O)N2CCNCC2)c2cc(Cl)ccc21` (stereo not drawn) [Test Compound 52, 5-[(1-Piperazinyl)carbonylmethyl]-7-chloro-1-[2-methoxy-4-(2-methylbenzoylamino)benzoyl]-2,3,4,5-tetrahydro-1H-benzazepine hydrochloride], for which the IC50 on V1 Receptor was 16 nM; on V2 Receptor, 6 nM.
Turning to `COc1cc(NC(=O)c2ccccc2C)ccc1C(=O)N1CCCC(CCN2CCC(N(C)C)CC2)c2cc(Cl)ccc21` (stereo not drawn) [Test Compound 54, 5-[2-(4-Dimethylamino-1-piperidinyl)ethyl]-7-chloro-1-[2-methoxy-4-(2-methylbenzoylamino)benzoyl]-2,3,4,5-tetrahydro-1H-benzazepine dihydrochloride], the figures for the IC50 at V1 Receptor and on V2 Receptor were 54 nM and 4 nM, respectively.
On the same counts, the results for `COc1cc(NC(=O)c2ccccc2C)ccc1C(=O)N1CCCC(CCN2CCN(C)CC2)c2cc(Cl)ccc21` (stereo not drawn) [Test Compound 55, 5-[2-(4-Methyl-1-piperazinyl)ethyl]-7-chloro-1-[2-methoxy-4-(2-methylbenzoylamino)benzoyl]-2,3,4,5-tetrahydro-1H-benzazepine dihydrochloride] are 62 nM and 12 nM.
Take `COc1cc(NC(=O)c2ccccc2C)ccc1C(=O)N1CCCC(CC(=O)N2CCCCC2)c2cc(F)ccc21` (stereo not drawn) [Test Compound 58, 5-[(1-piperidinyl)carbonylmethyl]-7-fluoro-1-[2-methoxy-4-(2-methylbenzoylamino)benzoyl]-2,3,4,5-tetrahydro-1H-benzazepine]: the IC50 came to 95 nM on V1 Receptor and 16 nM at V2 Receptor.
The matching figures for `COc1cc(NC(=O)c2ccccc2Br)ccc1C(=O)N1CCCC(CC(=O)N2CCC(NC(C)=O)CC2)c2cc(F)ccc21` (stereo not drawn) [Test Compound 60, 5-[(4-Acetylamino-1-piperidinyl)carbonylmethyl]-7-fluoro-1-[2-methoxy-4-(2-bromobenzoylamino)benzoyl]-2,3,4,5-tetrahydro-1H-benzazepine]: 45 nM and 10 nM.
On to `COc1cc(NC(=O)c2ccccc2C)ccc1C(=O)N1CCCC(CC(=O)N2CCN(C)CC2)c2cc(Cl)ccc21` (stereo not drawn) [Test Compound 63, 5-[(4-Methyl-1-piperazinyl)carbonylmethyl]-7-chloro-1-[2-methoxy-4-(2-methylbenozylamino)benzoyl]-2,3,4,5-tetrahydro-1H-benzazepine], for which the IC50 was 30 nM on V1 Receptor and 10 nM at V2 Receptor.

The values are drawn from patent publication US5244898A, “Benzoheterocyclic compounds” (Otsuka Pharmaceutical Co., Ltd., priority 1991, dated 1993).
